Source: ChEMBL document CHEMBL4842345, “Design, synthesis and biological evaluation of tanshinone IIA-based analogues: Potent inhibitors of microtubule formation and angiogenesis” (Eur J Med Chem, 2021)
≈ marks a conversion by molar mass, not a printed value. Calls of active or inactive are those of the source. No cut-off for these calls is given here.

What was measured:
[1] = Kinetic solubility of the compound at pH 6.5 by nephelometry; assay type: physicochemical; conditions: buffer, read-out: Kinetic_solubility
A549 [2] = assay: Inhibition of cell migration in human A549 cells assessed as decrease in wound healing rate at 0.5 to 2 uM measured after 48 hrs by wound healing assay; assay type: functional, cell-based; conditions: dose 0.5-2 µM
A549 [3] = assay: Antiproliferative activity against human A549 cells assessed as reduction in cell viability measured after 72 hrs by MTT assay; assay type: functional, cell-based; conditions: A549, 72 h
HUVEC [4] = assay: Antivascular activity against HUVEC cells assessed as inhibition of capillary-like tubule formation measured after 6 hrs by matrigel matrix based microscopic analysis; assay type: functional, cell-based; conditions: Homo sapiens, dose 0.25-1 µM
A549 [5] = assay: Induction of apoptosis in human A549 cells assessed as live cells at 10 uM measured after 48 hrs by Annexin V-FITC/PI staining based flow cytometry analysis (Rvb= 97.1%); assay type: functional
A549 [6] = assay: Induction of cell cycle arrest in human A549 cells assessed as accumulation of cells at S phase at 5 uM measured after 48 hrs by flow cytometry analysis (Rvb= 24.5%); assay type: functional
A549 [7] = assay: Induction of apoptosis in human A549 cells assessed as dead cells at 10 uM measured after 48 hrs by Annexin V-FITC/PI staining based flow cytometry analysis (Rvb= 0.67%); assay type: functional
Danio rerio = organism: Danio rerio; assay: Antiangiogenic activity in transgenic Tg(flk:EGFP) zebra fish embryos assessed as disruption of intersegmental vessels formation measured at 30 hrs post fertilization by confocal fluorescence microscopy analysis; assay type: functional, organism-based
A549 [8] = assay: Induction of cell cycle arrest in human A549 cells assessed as increase in number of cells accumulation at G2/M phase at 10 uM measured after 48 hrs by flow cytometry analysis (Rvb= 16.72%); assay type: functional
A549 [9] = assay: Induction of cell cycle arrest in human A549 cells assessed as accumulation of cells at G1 phase at 5 uM measured after 48 hrs by flow cytometry analysis (Rvb= 60.29%); assay type: functional
U-937 = assay: Antiproliferative activity against human U-937 cells assessed as reduction in cell viability measured after 72 hrs by MTT assay; assay type: functional, cell-based; conditions: U-937, 72 h
HUVEC [10] = assay: Antivascular activity against HUVEC cells assessed as reduction in number of branching points measured after 6 hrs by imaging analysis; assay type: functional, cell-based; conditions: Homo sapiens, dose 0.25-1 µM
Tubulin (Homo sapiens) = Tubulin (Homo sapiens) (UniProt P68371+Q9H4B7+P0DPH7+P68366+Q13509+Q71U36+P04350+Q3ZCM7+P07437+P68363+Q9BQE3+Q6PEY2+Q13885+Q9BVA1+Q9BUF5); assay: Induction of microtubule distruption in human A549 cells assessed as disseminated microtubules in cytoplasm at 2.5 to 10 uM measured after 48 hrs by immunofluorescence based laser scanning confocal microscopic analysis; assay type: cell-based; conditions: dose 2.5-10 µM
A549 [11] = assay: Induction of apoptosis in human A549 cells assessed as early apoptotic cells at 5 uM measured after 48 hrs by Annexin V-FITC/PI staining based flow cytometry analysis (Rvb= 0.72%); assay type: functional
HepG2 = assay: Antiproliferative activity against human HepG2 cells assessed as reduction in cell viability measured after 72 hrs by MTT assay; assay type: functional, cell-based; conditions: HepG2, 72 h
A549 [12] = assay: Induction of cell cycle arrest in human A549 cells assessed as accumulation of cells at S phase at 2.5 uM measured after 48 hrs by flow cytometry analysis (Rvb= 24.5%); assay type: functional
HUVEC [13] = assay: Antivascular activity against HUVEC cells assessed as reduction in area and number of meshes measured after 6 hrs by imaging analysis; assay type: functional, cell-based; conditions: Homo sapiens, dose 0.25-1 µM
[14] = Metabolic stability in human liver microsomes assessed as degradation half life; assay type: ADME, Microsome; conditions: microsomes

**Q.** Which solubility kinetic [1] does the source give for COc1ccc2c(c1)-c1occ(C)c1C(=O)C2=O here?
**A.** 405 µg/mL (≈ 1670 µM)

**Q.** And the inhibition (A549 [2])?
**A.** Active

**Q.** What about the IC50 (A549 [3]) of the same compound?
**A.** 0.32 µM

**Q.** And the Activity (HUVEC [4])?
**A.** Active

**Q.** And the Activity (A549 [5])?
**A.** 11.1%

**Q.** And the Activity (A549 [6])?
**A.** 25.26%

**Q.** What about the Activity (A549 [7]) of the same compound?
**A.** 0.5%

**Q.** What about the Activity (Danio rerio) of the same compound?
**A.** Dose-Dependent Effect

**Q.** And the Activity (A549 [8])?
**A.** 32.19%

**Q.** What about the Activity (A549 [9]) of the same compound?
**A.** 54.43%

**Q.** And the IC50 (U-937)?
**A.** 2.77 µM

**Q.** And the Activity (HUVEC [10])?
**A.** Dose-Dependent Effect

**Q.** What about the Activity (Tubulin (Homo sapiens)) of the same compound?
**A.** Active

**Q.** And the Activity (A549 [11])?
**A.** 10.3%

**Q.** And the IC50 (HepG2)?
**A.** 2 µM

**Q.** What about the Activity (A549 [12]) of the same compound?
**A.** 21.27%

**Q.** What about the Activity (HUVEC [13]) of the same compound?
**A.** Dose-Dependent Effect

**Q.** What about the t1/2 [14] of the same compound?
**A.** 1.8 h
